Data on 14 compounds can be found in US5198568A, “Compounds useful in enzymatic resolution systems and their preparation” (priority 1991, dated 1993).

Where a name gives a salt, the structure may show the parent alone.

Data set [1] has as its system Protease XXIII from Aspergillus oryzae (Sigma, Enzyme A). The experiment in a line: Homogeneous aqueous enzymatic resolution (ester hydrolysis), Enzyme A. In kind it is biochemical. The procedure:
No further purification was performed.

In data set [2] the target is T1, Protease VIII, Subtilopeptidase A (subtilisin Carlsberg) (Sigma, Enzyme B) (Bacillus licheniformis, UniProt P00780).
T1 sequence (P00780 106-379): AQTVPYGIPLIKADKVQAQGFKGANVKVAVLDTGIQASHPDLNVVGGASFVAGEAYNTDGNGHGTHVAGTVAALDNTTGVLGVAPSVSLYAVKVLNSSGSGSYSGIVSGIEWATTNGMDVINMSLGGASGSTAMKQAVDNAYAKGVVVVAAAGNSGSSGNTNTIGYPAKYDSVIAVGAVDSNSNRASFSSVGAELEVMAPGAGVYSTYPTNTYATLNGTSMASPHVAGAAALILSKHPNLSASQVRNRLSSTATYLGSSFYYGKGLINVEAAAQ
The experiment in a line: Homogeneous aqueous enzymatic resolution (ester hydrolysis), Enzyme B. In kind it is biochemical. Particulars: for % e.e.: acid product.

For data set [3], the target named is T2, Protease XXVII, Nagarse (Sigma, Enzyme D) (Bacillus amyloliquefaciens, UniProt P00782).
T2 construct: purchased Sigma
T2 sequence (P00782 108-382): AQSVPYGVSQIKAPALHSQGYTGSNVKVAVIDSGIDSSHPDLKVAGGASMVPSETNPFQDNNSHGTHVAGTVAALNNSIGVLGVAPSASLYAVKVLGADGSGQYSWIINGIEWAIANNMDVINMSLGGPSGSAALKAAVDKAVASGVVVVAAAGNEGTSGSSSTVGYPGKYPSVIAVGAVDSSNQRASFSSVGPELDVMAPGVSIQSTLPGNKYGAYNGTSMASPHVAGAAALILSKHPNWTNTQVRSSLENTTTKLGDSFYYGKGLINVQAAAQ
Description: Homogeneous aqueous enzymatic resolution (ester hydrolysis), Enzyme D. It counts as biochemical. Conditions: 150 mg enzyme D.

Data set [4] concerns Pig Liver Esterase (Sigma E-3128, Enzyme E). The experiment in a line: Homogeneous aqueous enzymatic resolution (ester hydrolysis), Enzyme E. In kind it is biochemical. Particulars: 30 mg Pig Liver Esterase (E).
The test system of data set [5] is protease Prozyme 6 from Aspergillus oryzae (Amano, Enzyme F). Description: Homogeneous aqueous enzymatic resolution (ester hydrolysis), Enzyme F. In kind it is biochemical. Conditions: for % CONVERSION: 10 mmol ester in 100 ml 0.2M buffer pH 7.0, 25 C. The procedure:
(§1) The enzymatic reaction mixtures were capped and briefly shaken until all the substrate had dissolved, and the enzyme had completely dissolved or dispersed. […] Evaporation of the ether left a white solid. Rotations were measured at c=1 in CHCl3.
as §1
The reaction was started by adding 100 mg of the protease (F) from the fungus Aspergillus oryzae (from Amano Enzyme Corporation, Prozyme 6, 60,000 units per mg of solid).
After 20 hours at room temperature, the solution was acidified to pH 2 and extracted with 3 volumes of diethyl ether. The aqueous phase was saved for subsequent workup. The ether phase was washed with two volumes of distilled water and then one volume of saturated sodium chloride, and then it was dried over MgSO4 and subsequently evaporated to dryness. The resolved ibuprofen product recovered was 930 mg of white powder, indicating 45% conversion of racemic ester to acid. The optical rotation was -0.580° (measured at c=1 in ethanol), indicating the R isomer of ibuprofen.
35 mg of protease Enzyme F, as the commercial preparation Prozyme 6, were added to the aqueous solution. The reaction flask was capped, and briefly shaken until all the enzyme had dissolved or dispersed. […] The resulting mixture was diluted with one volume of water and was extracted with diethyl ether (2 times 200 ml). The ether layers were combined and backwashed with water (2 times 200 ml), saturated NaCl solution (200 ml), and then dried over MgSO4.
In this control run, a 0.5M ester solution of (1) was prepared in 325 ml of 0.1M sodium phosphate buffer (pH 7.0). The reaction was started by adding 3 gm of the above enzyme (F). The pH was controlled at 7.0 with 8.22M sodium hydroxide. After 6.49 hours at 30 ° C., 6.63 ml of hydroxide were added, indicating 37.7% conversion. The reaction was allowed to continue overnight and, after 23.1 hours, a total of 7.2 ml of sodium hydroxide were added, indicating 40.9% conversion.

Data set [6] deals with lipase derived from Candida cylindracea (Genzyme, Enzyme G). The experiment in a line: Asymmetric hydrolysis in a multiphase membrane bioreactor, Enzyme G.
Description: 3.0 grams of the lipase were dissolved in 500 mls of distilled water; this solution was recirculated in an ultrafiltration mode from the shell into the lumen and back to the reservoir for 30 minutes. The ultrafiltrate was then collected until the reservoir was empty, and methyl isobutyl ketone (MIBK) was then pumped into the shell and recirculated at 400-450 ml/min with a 5-7 psig shell pressure to remove any remaining enzyme solution from the shell.
A reactor was prepared as described in Example 6.2.2.5 (naproxen) using essentially the same mode of loading the enzyme, 3.0 grams of Candida lipase (Enzyme G, from Genzyme Corporation) were ultrafiltered from the shell into the lumen. The enzyme was then washed with 2-3 l of distilled water and 1 l of potassium phosphate buffer (0.10 M, pH 7.7). The module was then drained.
No organic solvent was required as the substrate is already a water-immiscible liquid. Phosphate buffer was immediately pumped into the lumen and recirculated at 400-450 ml/min.
The reaction was monitored by following acid production based on hydroxide titration data. […] The aqueous buffer was replaced after 76 minutes and acidified to pH 2.0 with concentrated HCl in the presence of about 200 ml of chloroform.
Data set [7] deals with Candida lipase (Sigma L-1754, Enzyme H). Description: Asymmetric hydrolysis in a multiphase membrane bioreactor, Enzyme H. Conditions: 210 gm neat ester.
Description: The enzyme solution was recirculated from the shell side to the lumen side and back to the solution reservoir in an ultra-filtration mode. […] The procedure was completed in one hour.
After loading the enzyme to the reactor, recirculation of 210 gm. […] The recirculation rate was 400 ml/min and the average pressure on the shell compartment was kept at 6.5 psi by adjusting a throttling valve at the shell side exit. On the lumen side 1 liter of 0.05M K was recirculated at a rate of 400 ml/min. The pH of the aqueous reservoir was kept at 7.0 by addition of 1M NaOH. The reactor was run continuously for 6.8 days.
The reaction progress and rate were monitored by following the caustic consumption. […] The initial ester substrate to the reactor had no optical rotation.
Where [8] appears, read: 0.010 mol ester in 100 ml 0.2M sodium phosphate pH 7.8.

In the case of `CC(C)Cc1ccc(C(C)C(=O)OCCS(=O)(=O)O)cc1` (stereo not shown) [Compound 2, Sodium Salt of 2-Sulfoethyl Ester of 2-(4-Isobutylphenyl)propanoic Acid], the “% e.e.” value in data set [1] (acid product, 150 mg enzyme A, 125 ml, pH 7.0, 18 hours) is greater than 99%; in data set [2] (150 mg enzyme B, 125 ml, pH 7.0, 18 hours) it was 90.0%.
Regarding `CC(C)Cc1ccc(C(C)C(=O)OCCCS(=O)(=O)O)cc1` (racemic) [Compound 3, Potassium Salt of 3-SulfopropylEster of 2-(4-Isobutylphenyl)propanoic Acid], the “% CONVERSION” value was determined as 50.0% in data set [1] (100 mg enzyme A, 10 mmol ester in 100 ml 0.2 M phosphate buffer pH 7.0, 20-22 C, 20 hours); 32.0% in data set [3] (setting [8]); 12.1% in data set [4] (setting [8]). Moreover, the “conversion of the racemic ester to acid” value in data set [1] (1.00 gm enzyme A, about 1M ester, pH 7.0, room temperature, 23.9 hours, by NaOH titration) was 29%. The “% e.e.” value in data set [3] (acid product, pH 7.8) is 91.0%; in data set [4] (acid product, pH 7.8), 88.0%.
As to `COc1ccc2cc(C(C)C(=O)OCS(=O)(=O)O)ccc2c1` (stereo not shown) [Compound 9, Sodium Salt of Sulfomethyl Ester of 2-(6-Methoxy-2-naphthyl)propanoic Acid], the “enantiomeric excess of S isomer of Naproxen (from unconverted ester hydrolyzed at pH 12)” value in data set [1] (100 mg enzyme A, pH 7.5, 25 degrees, 16 hours, from rotation in CHCl3) is listed as 45.5%.
Regarding `COc1ccc2cc(C(C)C(=O)OCCC[N+](C)(C)C)ccc2c1` (stereo not shown) [Compound 12, Methyl Sulfate Salt of 3-(N,N,N-Trimethylammonium)propyl Ester of 2-(6-Methoxy-2-naphthyl)propanoic Acid], the “% CONVERSION” value in data set [5] (100 mg Prozyme 6 (F), 18 hours) is 34.0%.
`COC(=O)C(C)c1ccc2cc(OC)ccc2c1` (stereo not shown) [Compound 18, Methyl Ester of 2-(6-Methoxy-2-naphthyl)propanoic Acid]: the “average rate of hydrolysis, first 45 minutes” value in data set [6] (0.75M ester in MIBK, 3.0 grams lipase in 0.85 m2 module, pH 8.50) was found to be 35 µmol/h.
In turn, `CC(Oc1ccc(Cl)cc1)C(=O)OCS(=O)(=O)O` (stereo not shown) [Compound 17, Sodium Salt of the Sulfomethyl Ester of 2-(4-Chlorophenoxy)propanoic Acid] displayed a completion of reaction in data set [5] (35 mg Prozyme 6 (F), 10 mmol ester in 100 ml 0.2M sodium phosphate pH 7.0, 30 C, 1 hour) of 22.5%.
With `CCCCCCCCOC(=O)C(C)Cl` (stereo not shown) [Compound 20, Octyl Ester of 2-Chloropropanoic Acid], the “rate of ester hydrolysis at the beginning of the experiment” value in data set [7] (30 grams lipase loaded, pH 7.0) came out at 186 µmol/min. Further, in data set [7] (pH 7.0, run 6.8 days), the “initial ester hydrolyzed at termination” value is 41% and the “rate of ester hydrolysis at the end of the experiment” value came out at 25 µmol/min.
With `CC(C)Cc1ccc(C(C)C(=O)OCCCCS(=O)(=O)O)cc1` (stereo not shown) [Compound 4, Potassium Salt of 4-Sulfobutyl Ester of 2-(4-Isobutylphenyl)propanoic Acid], the “% CONVERSION” value in data set [2] (100 mg enzyme B, 10 mmol ester in 100 ml 0.2 M phosphate buffer pH 7.0, 20-22 C, 20 hours) came to 20.0%.
For the compound `COc1ccc2cc(C(C)C(=O)OCCCS(=O)(=O)O)ccc2c1` (stereo not shown) [Compound 7, Potassium Salt of the 3-Sulfopropyl Ester of 2-(6-Methoxy-2-naphthyl)propanoic Acid], the “% e.e.” value in data set [1] (naproxen acid product, 150 mg enzyme A, pH 7.8, 18 hours (Table 12)) turned out to be 78.0%.
For `COc1ccc2cc(C(C)C(=O)OCCS(=O)(=O)O)ccc2c1` (stereo not shown) [Compound 8, Potassium Salt of 2-Sulfoethyl Ester of 2-(6-Methoxy-2-naphthyl) propanoic Acid], the “% e.e.” value in data set [1] (naproxen acid product, 150 mg enzyme A, pH 7.8 (Table 13)) was 59.0%.
For `CC(C)Cc1ccc(C(C)C(=O)OCC[N+](C)(C)C)cc1` (racemic) [Compound 10, Iodide Salt of 2-(N,N,N-Trimethylammonium)ethyl Ester of 2-(4-Isobutylphenyl)propanoic Acid], the “% e.e.” value in data set [1] (acid product, 100 mg enzyme A, pH 7.0, 20-22 C, 20 hours) is greater than 99%.
As to `COc1ccc2cc(C(C)C(=O)OCC[N+](C)(C)C)ccc2c1` (stereo not shown) [Compound 11, Methyl Sulfate Salt of 2-(N,N,N-Trimethylammonium)ethyl Ester of 2-(6-Methoxy-2-naphthyl)propanoic Acid], the “% CONVERSION” value in data set [5] (100 mg Prozyme 6 (F), 18 hours) came to 24.3%. Moreover, the “% e.e.” value in data set [5] (naproxen acid product, 100 mg Prozyme 6 (F), pH 7.0, 25 C, 18 hours) turned out to be 34.0%.
Consider `CC(CSC(=O)c1ccccc1)C(=O)OCS(=O)(=O)O` (racemic) [Compound 16, Potassium Salt of the Sulfomethyl Ester of (±)-S-3-Benzoylthio-2-methylpropanoic Acid], for which the “% CONVERSION” value in data set [1] (100 mg enzyme A, 10.0 mmol ester in 100 ml 0.2M buffer pH 7.0, 25 C, 18 hours) worked out at 53%; in data set [2] (100 mg enzyme B, 10.0 mmol ester in 100 ml 0.2M buffer pH 7.0, 25 C, 18 hours) it was 26%. The “% e.e.” value is listed as 3% in data set [1] (acid product, 100 mg enzyme A, pH 7.0, 25 C, 18 hours) and 10% in data set [2] (100 mg enzyme B, pH 7.0, 25 C, 18 hours).
Take `CC(C)Cc1ccc(C(C)C(=O)OCC(F)(F)F)cc1` (stereo not shown) [Compound 19, 2,2,2-Trifluoroethyl Ester of 2-(4-Isobutylphenyl)propanoic Acid]: in data set [6] (neat liquid ester, 3.0 grams lipase, pH 7.7), the “average hydrolytic rate, first 60 minutes” value amounted to 160 µmol/min. For the same compound, the “average hydrolysis rate, next 76 hours” value in data set [6] (neat liquid ester, 3.0 grams lipase, pH 7.7, by titrimetry) is 21 µmol/min. Besides, the conversion to acid entry in data set [6] (neat liquid ester, 3.0 grams lipase, pH 7.7, over the 76 hours) was “about 9.8%”.
